In patent US12233057B2, “Small molecules for inhibiting chemokine activity and/or cancer cells growth” (AlonBio Ltd., priority 2015, dated 2025):
Converted amounts (≈) assume the structure as drawn.

Key:
[1] = target: TGFBR2 (Homo sapiens, UniProt P37173); assay: LanthaScreen europium kinase binding assay; details: BKT300 at 78% purity
Procedure: (§1) In order to further characterize the effect of BKT300 on cell signaling, kinase profiling of BKT300 (at 78% purity) was performed (by the Life Technologies SelectScreen® Biochemical Profiling Lab) using a LanthaScreen® europium kinase binding assay to screen 440 kinases.
(§2) The principle of the LanthaScreen® assay is depicted in FIG. 13. Binding of an Alexa Fluor® conjugate or “tracer” to a kinase is detected by addition of a europium (Eu)-labeled anti-tag antibody. Binding of the tracer and antibody to a kinase results in a high degree of FRET, whereas displacement of the tracer with a kinase inhibitor results in a loss of FRET. The kinase tracers are based on ATP-competitive kinase inhibitors, making them suitable for detection of any compounds that bind to the ATP site. Inhibitors that bind the ATP site include both Type I kinase inhibitors, which bind solely to the ATP site, and Type II inhibitors (e.g., imatinib, sorafenib, BIRB-796), which bind to both the ATP site and a second site often referred to as the allosteric site.

[2] = target: DAPK2 (Homo sapiens, UniProt Q9UIK4); assay: LanthaScreen europium kinase binding assay; details: BKT300 at 78% purity
DAPK2, sequence (Q9UIK4 whole entry): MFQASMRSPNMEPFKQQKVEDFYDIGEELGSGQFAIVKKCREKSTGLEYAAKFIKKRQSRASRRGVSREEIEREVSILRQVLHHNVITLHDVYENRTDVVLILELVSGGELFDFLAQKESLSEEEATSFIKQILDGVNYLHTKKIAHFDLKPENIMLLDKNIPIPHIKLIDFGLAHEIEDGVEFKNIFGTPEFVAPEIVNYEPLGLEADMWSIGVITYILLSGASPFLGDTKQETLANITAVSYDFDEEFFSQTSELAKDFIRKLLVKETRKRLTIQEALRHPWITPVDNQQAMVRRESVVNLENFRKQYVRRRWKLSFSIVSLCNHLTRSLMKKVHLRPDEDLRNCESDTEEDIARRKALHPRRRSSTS
Procedure: as §1, §2

[3] = target: STK38 (NDR) (Homo sapiens, UniProt Q15208); assay: LanthaScreen europium kinase binding assay; details: BKT300 at 78% purity
STK38 (NDR), sequence (Q15208 whole entry): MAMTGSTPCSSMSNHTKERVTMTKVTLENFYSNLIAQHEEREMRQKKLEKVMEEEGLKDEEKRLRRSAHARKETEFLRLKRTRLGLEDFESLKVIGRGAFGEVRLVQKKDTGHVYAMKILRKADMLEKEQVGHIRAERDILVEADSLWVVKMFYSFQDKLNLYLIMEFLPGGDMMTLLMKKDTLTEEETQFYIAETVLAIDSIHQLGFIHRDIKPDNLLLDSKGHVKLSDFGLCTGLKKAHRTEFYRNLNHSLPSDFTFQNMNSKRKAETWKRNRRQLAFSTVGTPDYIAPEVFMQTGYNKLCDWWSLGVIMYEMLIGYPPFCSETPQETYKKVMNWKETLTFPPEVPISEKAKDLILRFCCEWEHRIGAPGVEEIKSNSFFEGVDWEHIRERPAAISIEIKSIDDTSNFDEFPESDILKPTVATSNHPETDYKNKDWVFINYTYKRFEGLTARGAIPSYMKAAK
Procedure: as §1, §2

[4] = target: PIK3CD (Homo sapiens, UniProt O00329); assay: LanthaScreen europium kinase binding assay; details: BKT300 at 78% purity
PIK3CD, sequence (O00329 whole entry): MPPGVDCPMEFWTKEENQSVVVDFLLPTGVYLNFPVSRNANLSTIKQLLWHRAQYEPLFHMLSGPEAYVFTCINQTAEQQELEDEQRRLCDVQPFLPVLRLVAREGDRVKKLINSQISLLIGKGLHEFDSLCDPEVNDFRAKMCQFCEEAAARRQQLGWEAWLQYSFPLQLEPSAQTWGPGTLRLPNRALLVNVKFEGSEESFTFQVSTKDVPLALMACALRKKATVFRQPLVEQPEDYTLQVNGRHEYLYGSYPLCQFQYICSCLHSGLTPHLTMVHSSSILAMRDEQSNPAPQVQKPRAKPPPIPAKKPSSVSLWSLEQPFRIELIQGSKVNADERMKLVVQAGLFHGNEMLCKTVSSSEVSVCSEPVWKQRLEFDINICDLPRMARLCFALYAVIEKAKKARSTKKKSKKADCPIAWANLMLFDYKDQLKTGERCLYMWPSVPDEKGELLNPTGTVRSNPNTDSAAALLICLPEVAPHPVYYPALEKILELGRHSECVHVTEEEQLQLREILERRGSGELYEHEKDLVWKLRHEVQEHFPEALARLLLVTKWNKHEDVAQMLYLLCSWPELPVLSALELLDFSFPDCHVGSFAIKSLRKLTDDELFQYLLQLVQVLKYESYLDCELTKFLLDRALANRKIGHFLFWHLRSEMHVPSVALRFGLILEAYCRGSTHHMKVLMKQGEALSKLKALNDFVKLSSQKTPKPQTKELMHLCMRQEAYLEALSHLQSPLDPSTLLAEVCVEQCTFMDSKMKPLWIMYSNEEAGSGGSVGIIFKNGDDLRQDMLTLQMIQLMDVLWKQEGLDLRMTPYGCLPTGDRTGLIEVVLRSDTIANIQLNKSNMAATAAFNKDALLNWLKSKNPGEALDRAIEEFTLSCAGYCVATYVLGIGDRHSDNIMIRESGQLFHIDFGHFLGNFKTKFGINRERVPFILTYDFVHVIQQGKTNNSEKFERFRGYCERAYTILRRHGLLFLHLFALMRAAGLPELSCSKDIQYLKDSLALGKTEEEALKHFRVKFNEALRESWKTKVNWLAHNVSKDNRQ
PIK3CD, sequence (P27986 whole entry partner): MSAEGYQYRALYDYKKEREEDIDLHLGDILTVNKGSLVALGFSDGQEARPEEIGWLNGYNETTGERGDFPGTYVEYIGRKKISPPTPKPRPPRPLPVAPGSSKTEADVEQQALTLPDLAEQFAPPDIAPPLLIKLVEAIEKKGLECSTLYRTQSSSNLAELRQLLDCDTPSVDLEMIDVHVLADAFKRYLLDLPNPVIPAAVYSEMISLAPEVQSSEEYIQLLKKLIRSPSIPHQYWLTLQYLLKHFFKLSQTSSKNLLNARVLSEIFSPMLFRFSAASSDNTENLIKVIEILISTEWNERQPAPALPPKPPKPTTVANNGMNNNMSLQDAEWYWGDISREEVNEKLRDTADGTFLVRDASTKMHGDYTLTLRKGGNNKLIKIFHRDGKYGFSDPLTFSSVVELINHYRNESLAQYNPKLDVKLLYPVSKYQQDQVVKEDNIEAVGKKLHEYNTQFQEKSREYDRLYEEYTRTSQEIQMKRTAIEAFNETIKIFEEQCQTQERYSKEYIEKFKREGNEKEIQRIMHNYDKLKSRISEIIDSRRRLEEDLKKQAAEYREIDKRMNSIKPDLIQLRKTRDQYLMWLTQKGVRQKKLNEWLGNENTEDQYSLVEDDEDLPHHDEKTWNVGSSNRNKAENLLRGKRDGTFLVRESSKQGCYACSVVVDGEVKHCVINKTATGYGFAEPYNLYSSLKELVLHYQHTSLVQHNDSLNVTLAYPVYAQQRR
Procedure: as §1, §2

[5] = target: CLK4 (Homo sapiens, UniProt Q9HAZ1); assay: LanthaScreen europium kinase binding assay; details: BKT300 at 78% purity
CLK4, sequence (Q9HAZ1 whole entry): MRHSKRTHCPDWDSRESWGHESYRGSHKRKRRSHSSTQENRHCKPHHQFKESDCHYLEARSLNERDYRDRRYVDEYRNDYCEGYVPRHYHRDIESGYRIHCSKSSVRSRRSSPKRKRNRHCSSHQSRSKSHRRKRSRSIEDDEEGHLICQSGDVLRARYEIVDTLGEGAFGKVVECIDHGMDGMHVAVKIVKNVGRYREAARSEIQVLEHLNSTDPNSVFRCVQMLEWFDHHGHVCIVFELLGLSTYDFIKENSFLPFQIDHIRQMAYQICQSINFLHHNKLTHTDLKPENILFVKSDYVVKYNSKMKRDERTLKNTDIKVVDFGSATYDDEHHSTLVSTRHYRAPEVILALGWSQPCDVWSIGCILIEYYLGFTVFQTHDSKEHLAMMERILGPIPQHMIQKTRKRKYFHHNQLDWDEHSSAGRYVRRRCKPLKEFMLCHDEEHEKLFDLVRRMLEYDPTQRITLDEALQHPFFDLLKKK
Procedure: as §1, §2

[6] = test system: MV4-11 human acute myeloid leukemia cells; assay: Cancer cell viability assay, propidium iodide staining (FACS); format: cell-based
Procedure: (§3) The cancer cells were incubated in cell medium with 1% fetal calf serum (FCS) at a concentration of 2×10^5 cells/well at a final volume of 250 μl in 96-well plate. The tested small molecule was added to the cells at the indicated concentrations. The cells were incubated for 24 hours and the number of dead and viable cells was then evaluated by fluorescence-activated cell sorting (FACS), using propidium iodide (PI) staining. The IC50 of the small molecule-induced cell death was determined using GraphPad Prism software.
In order to assess the effect of BKT300 on cancer cells viability, the in vitro effect on MV4-11 human acute myeloid leukemia cells was evaluated. The MV4-11 cancer cells were incubated in RPMI cell medium with 1% fetal calf serum (FCS) at a concentration of 2×10^5 cells/well at a final volume of 250 μl in 96-well plate. BKT300 was added to the cells at the indicated concentrations. The cells were incubated for 24 hours and the number of dead and viable cells was then evaluated by fluorescence-activated cell sorting (FACS), using propidium iodide (PI) staining. The IC50 of […] cell death was determined using GraphPad Prism software.

[7] = test system: Bjab human lymphoma cells; assay: as above; format: cell-based; details: BKT300 at 78% purity, 8.5 μg/ml
Procedure: as §3
(§4) The in vitro effect of BKT300 (at 78% purity) on cancer cell viability was further evaluated using a variety of additional cancer cell lines, using procedures as described hereinabove with respect to MV4-11 cells.

[8] = test system: Raji human lymphoma cells; assay: as above; format: cell-based; details: BKT300 at 78% purity
Procedure: as §3, §4

[9] = test system: Jurkat human acute lymphoblastic leukemia cells; assay: as above; format: cell-based; details: BKT300 at 78% purity, 24 hours
Procedure: as §3, §4

[10] = test system: H460 human large cell lung cancer cells; assay: as above; format: cell-based; details: BKT300 at 78% purity, 10 μg/ml
Procedure: as §3, §4

[11] = test system: RPMI human multiple myeloma cells; assay: as above; format: cell-based; details: BKT300 at 78% purity, 24 hours
Procedure: as §3, §4

[12] = test system: H345 human small cell lung cancer cells; assay: as above; format: cell-based; details: BKT300 at 78% purity, 8.5 μg/ml
Procedure: as §3, §4

[13] = test system: MV4-11 (FLT3-ITD) cells; assay: In vivo AML model: NSG mice transplanted with MV4-11 cells; details: BKT300 at 98% purity, 1 mg/Kg intraperitoneally, three consecutive days from day 21; day 25; anti human CD45
Procedure: The effect of BKT300 (at 98% purity) on the proliferation of AML cells in vivo was examined by treatment of NOD Scid gamma (NSG) mice transplanted with MV4-11 (FLT3-ITD) cells.
The mice were subjected to irradiation with 300 rad and on the following day were transplanted by IV injection with MV4-11 (FLT3-ITD) cells, 10×10^6 cells/mouse. 21 days following transplantation, the treated group was injected intraperitoneally with 1 mg/Kg of BKT300 (98% purity) per injection for three consecutive days. On day 25 following transplantation, mice were sacrificed and the survival of the human AML blasts in the blood, spleen and the bone marrow was evaluated using anti human CD45.

[14] = target: MIP3a (Homo sapiens, UniProt P78556); assay: Migration assay: CD4+ T-cells toward MIP3a (Transwell); format: cell-based; details: BKT300 at 78% purity, 50 μg/ml
MIP3a, sequence (P78556 27-96): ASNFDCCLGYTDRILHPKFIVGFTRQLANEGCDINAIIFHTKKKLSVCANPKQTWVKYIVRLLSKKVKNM
Procedure: (§5) 600 μl of RPMI medium was added to the lower chambers of Transwell® transmigration plates, supplemented with 2 μg/ml of MIP3a, 100 ng/ml of SDF-1 or 10 ng/ml of MCP-1. The tested small molecule was added to the lower chambers at the indicated concentration, except in control samples. The MIP3a, SDF-1 or MCP-1 was incubated with the small molecule for 30 minutes at room temperature before the initiation of the migration assay. Following 30 minutes of incubation 2×10^5 immune cells were added to the upper chambers of the transmigration plates in a total volume of 100 μl. Cells which migrated within 3 hours to the bottom chamber of the Transwell® plates were counted using a FACScalibur™ flow cytometer.
To evaluate migration toward MIP3a, peripheral blood mononuclear cells (PBMCs) were isolated from heparinized venous blood by centrifugation over Ficoll Histopaque® 1077. CD4+ T cells were further isolated with RosetteSep™ human CD4+ T-cell Enrichment cocktail (StemCell Technologies Inc.), according to the manufacturer's instructions.
The 18 compounds uncovered by the screening assay were further tested for their ability, at final concentrations of 10 and 50 μg/ml, to inhibit the migration of human CD4+ T-cells toward MIP3a; and to inhibit the migration of immune cells in response to MCP-1 and SDF-1, using the procedures described in the Materials and Methods section hereinabove.

[15] = target: MCP-1 (Homo sapiens, UniProt P13500); assay: Migration assay: THP-1 cells towards MCP-1 (Transwell); format: cell-based; details: BKT300 at 78% purity
MCP-1, sequence (P13500 24-99): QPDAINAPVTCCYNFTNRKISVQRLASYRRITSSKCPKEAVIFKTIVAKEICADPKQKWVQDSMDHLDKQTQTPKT
Procedure: as §5
To evaluate migration towards MCP-1, JTHP-1 cells were re-suspended in RPMI medium containing 1% fetal calf serum (FCS).

TGFBR2, sequence (P37173 23-567): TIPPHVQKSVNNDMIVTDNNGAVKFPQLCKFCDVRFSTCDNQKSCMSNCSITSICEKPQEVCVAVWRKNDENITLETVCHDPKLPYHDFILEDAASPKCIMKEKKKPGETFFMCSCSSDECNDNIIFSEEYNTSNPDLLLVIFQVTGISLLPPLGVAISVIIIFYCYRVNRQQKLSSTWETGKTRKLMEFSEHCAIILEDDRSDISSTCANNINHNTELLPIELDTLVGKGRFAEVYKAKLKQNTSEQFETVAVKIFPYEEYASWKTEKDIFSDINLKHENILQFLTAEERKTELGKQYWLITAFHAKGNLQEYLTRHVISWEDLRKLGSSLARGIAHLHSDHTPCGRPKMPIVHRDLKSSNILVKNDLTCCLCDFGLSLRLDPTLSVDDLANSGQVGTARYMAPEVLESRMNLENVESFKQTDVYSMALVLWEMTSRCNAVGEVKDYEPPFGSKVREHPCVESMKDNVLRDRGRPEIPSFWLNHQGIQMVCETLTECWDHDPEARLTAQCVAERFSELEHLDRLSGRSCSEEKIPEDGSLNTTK

% Inhibition [1]: 43% | % Inhibition [2]: 65% | % Inhibition [3]: 41% | % Inhibition [4]: 77% | % Inhibition [5]: 73% | Inhibition of CD4+ T-cell migration towards MIP3a [14]: completely inhibited | Effect on migration of THP-1 cells towards MCP-1 ([15]; 10 μg/ml): no apparent effect | Inhibition of migration of THP-1 cells towards MCP-1 ([15]; 50 μg/ml): strong inhibition
Compound: CCCCCc1cc2cc(O)cc(Oc3c(O)cc(O)cc3CCCCC)c2c(=O)o1 [BKT300]
Concentration at which cell death of MV4-11 cells is induced (as low as; lowest tested) ([6]; BKT300 at 78% purity, 24 hours): ≤ 2 µg/mL | Degree of cell death of MV4-11 cells, 98% purity compared with 78% purity ([6]; BKT300 at 98% purity, 4.25 μg/ml): considerably greater degree of cell death | Inducing cell death of MV4-11 cells, 98% purity compared with 78% purity ([6]; BKT300 at 98% purity, 2.125, 4.25, 8.5 μg/ml): significantly more effective | Cell death of Bjab cells [7]: about 30% | Cell death of Raji cells ([8]; 4.25 μg/ml): slight cell death | Cell death of Raji cells ([8]; 8.5 μg/ml): about 30% | Concentration at which cell death of Jurkat cells is induced (as low as; lowest tested) [9]: ≤ 2 µg/mL | IC50 ([9]; Homo sapiens, Jurkat, read-out: IC50 for induced death of Jurkat cells): 3.5 µg/mL (≈ 8.21 µM) | Cell death of H460 cells [10]: about 80% | Concentration at which cell death of RPMI cells is induced (as low as; lowest tested) [11]: ≤ 2 µg/mL | Cell death of H345 cells [12]: over 90% | Number and percentage of AML cells in the bone marrow [13]: dramatically reduced
